Consider three compounds from patent US20140235558A1, “PHARMACEUTICAL COMPOSITION HAVING ACTIVITY OF ANTICANCER” (Hanall Biopharma Co., Ltd., priority 2010, published 2014).

SMILES strings stand for the structures. Structures can show the parent of a compound that is named as a salt. Where two headings read alike, the source gives them in different places.

Assay [1] concerns AMPKα (5′-AMP-activated protein kinase alpha). Kind of assay: AMPK activation: phosphorylation of AMPKα at Thr172 in MCF7 cells (AMPKα immunoassay kit). The class given is cell-based, human. Particulars: MCF7, 24 h. Here is the method: AMPK activation occurs when the generation of ATP, an energy source necessary for the survival of cancer cells, is inhibited. […] In this regard, AMPKα (5'-AMP-activated protein kinase alpha) activation was measured in the MCF7 human breast cancer cells using the AMPKα immunoassay kit (Invitrogen, catalog No. KHO0651). […] Then, the cells were lysed using the AMPKα immunoassay kit (Invitrogen, catalog No. KHO0651) according to the manufacturer's instruction.

Assay [2] concerns human breast cancer cell line MCF7. Kind of assay: MTT cell growth inhibition, MCF7 cells. The class given is cell-based. The protocol: (§1) Briefly, MCF7 and NCI-N87 cells were grown at a density of 5,000 cells/well in DMEM and RPMI1640 media (both purchased from Gibco Life Technologies, USA), respectively, both supplemented with 10% (v/v) bovine calf serum (BCS), on 96-well plates for 16 h (Temp.: 37° C., pH: 7.0˜7.4). Then, the MCF7 cells were incubated for 48 h with 2.5 mM 2-deoxy-D-glucose and 100 μM phenformin HCl, solely or in combination while NCI-N87 cells were incubated for 48 h with 2.5 mM 2-deoxy-D-glucose and 700 μM phenformin HCl, solely or in combination (Temp.: 37° C., pH: 7.0˜7.4). To quantitate viable cells after incubation with 2-deoxy-D-glucose and phenformin HCl, the cell cultures were further incubated for 3 h in the presence of MTT. The formazan crystals thus formed were dissolved with DMSO (dimethyl sulfoxide) before reading absorbance at 560 nm.
(§2) After the 48 h incubation, viable cells were counted on the well plates treated with 2-deoxy-D-glucose and phenformin, and expressed as % cell growth inhibition relative to the count of the viable cells on the well plates treated with neither 2-deoxy-D-glucose nor phenformin.
(§3) When the human breast cancer cell line MCF7 and the human stomach cancer cell line NCI-N87 were treated with various concentrations of phenformin and 2-deoxy-D-glucose, % inhibition of cancer cell growth was measured. The same procedure as in Experimental Example 2 was repeated, with the exception that 2-deoxy-D-glucose and phenformin HCl were used at different concentrations.
(§4) The same procedure as in Experimental Example 3 was repeated in the breast cancer cell line MCF7 and the colorectal cancer cell line HCT116 (both purchased from the Korean Cell Line Bank), with the exception that the materials and concentrations indicated in Tables 5 and 6 were employed.

In assay [3] the test system is human stomach cancer cell line NCI-N87. The assay is described as follows: MTT cell growth inhibition, NCI-N87 cells. In kind it is cell-based. The protocol: as §1, §2, §3
For assay [4], the system named is colorectal cancer cell line HCT116. Kind of assay: MTT cell growth inhibition, HCT116 cells. In kind it is cell-based, human. The protocol: as §1, §2, §4

As to `OCC1O[C@H](O)C[C@@H](O)[C@@H]1O` (mixture of isomers) [2-Deoxy-D-glucose, 2-deoxy-D-glucose], the “Normalized to Control (P-AMPK)” value in assay [1] (2-deoxy-D-glucose 2.5 mM) is recorded as 1.46. In addition, the “P-AMPK (Unit/ml)” value in assay [1] (2-deoxy-D-glucose 2.5 mM) is 7.62 ± 1.2 Unit/ml. The inhibition at 2500 µM came out at 44.2% in assay [2] (Homo sapiens, MCF7, 48 h, read-out: Cell Growth Inhibition (%)) and 15.1% in assay [3] (Homo sapiens, NCI-N87, 48 h, 2-deoxy-D-glucose 2.5 mM). For the same compound, the “Tumor Growth Inhibition (%)” value came to 0% in assay [2] (MCF7, 2-DG 100 μM alone); 5% in assay [2] (MCF7, 2-DG 500 μM alone); 31% in assay [2] (MCF7, 2-DG 2 mM alone); 58% in assay [2] (MCF7, 2-DG 2.5 mM alone (Table 5)); 76% in assay [2] (MCF7, 2-DG 5.0 mM alone); 91% in assay [2] (MCF7, 2-DG 20.0 mM alone). For the same compound, the “Tumor Growth Inhibition (%)” value was found to be 3% in assay [3] (NCI-N87, 2-DG 100 μM alone); 6% in assay [3] (NCI-N87, 2-DG 500 μM alone); 32% in assay [3] (NCI-N87, 2-DG 2 mM alone); 62% in assay [4] (2-DG 2.5 mM alone); 79% in assay [4] (2-DG 5.0 mM alone); 93% in assay [4] (2-DG 20.0 mM alone). For the same compound, the “inhibitory effect on breast cancer cells relative to stomach cancer cells” value in assay [2] (MCF7 vs NCI-N87, 2.5 mM) is “about 3 times”.
`CN(C)C(=N)N=C(N)N` [Metformin HCl, metformin hydrochloride]: the inhibition at 625 µM in assay [2] (Homo sapiens, MCF7, metformin HCl 0.625 mM alone, read-out: Tumor Growth Inhibition (%)) is 9%; in assay [4] (Homo sapiens, HCT-116, metformin HCl 0.625 mM alone, read-out: Tumor Growth Inhibition (%)), 7%. Moreover, the inhibition at 1250 µM amounted to 22% in assay [2] (Homo sapiens, MCF7, metformin HCl 1.25 mM alone, read-out: Tumor Growth Inhibition (%)) and 11% in assay [4] (Homo sapiens, HCT-116, metformin HCl 1.25 mM alone, read-out: Tumor Growth Inhibition (%)). In addition, the inhibition at 2500 µM in assay [2] (Homo sapiens, MCF7, metformin HCl 2.5 mM alone, read-out: Tumor Growth Inhibition (%)) worked out at 24%; in assay [4] (Homo sapiens, HCT-116, metformin HCl 2.5 mM alone, read-out: Tumor Growth Inhibition (%)), 40%. For the same compound, the inhibition at 5000 µM in assay [2] (Homo sapiens, MCF7, metformin HCl 5.0 mM alone, read-out: Tumor Growth Inhibition (%)) is 30%; in assay [4] (Homo sapiens, HCT-116, metformin HCl 5.0 mM alone, read-out: Tumor Growth Inhibition (%)) it was 64%. The inhibition at 10000 µM in assay [2] (Homo sapiens, MCF7, metformin HCl 10.0 mM alone, read-out: Tumor Growth Inhibition (%)) amounted to 38%; in assay [4] (Homo sapiens, HCT-116, metformin HCl 10.0 mM alone, read-out: Tumor Growth Inhibition (%)), 63%. For the same compound, the inhibition at 20000 µM in assay [2] (Homo sapiens, MCF7, metformin HCl 20.0 mM alone, read-out: Tumor Growth Inhibition (%)) came out at 61%; in assay [4] (Homo sapiens, HCT-116, metformin HCl 20.0 mM alone, read-out: Tumor Growth Inhibition (%)) it was 66%.
On to `N=C(N)NC(=N)NCCc1ccccc1` [Phenformin HCl, phenformin hydrochloride], for which, in assay [1] (phenformin HCl 50 nM [sic]), the “Normalized to Control (P-AMPK)” value is given as 5.98. Further, in assay [1] (phenformin HCl 50 nM [sic]), the “P-AMPK (Unit/ml)” value is 12.14 ± 2.0 Unit/ml. Besides, the inhibition at 100 µM turned out to be 14.3% in assay [2] (Homo sapiens, MCF7, 48 h, phenformin HCl 100 μM, read-out: Cell Growth Inhibition (%)); 14% in assay [2] (Homo sapiens, MCF7, phenformin 100 μM alone, read-out: Tumor Growth Inhibition (%)); 24% in assay [3] (Homo sapiens, NCI-N87, phenformin 100 μM alone, read-out: Tumor Growth Inhibition (%)). The inhibition at 10 µM in assay [2] (Homo sapiens, MCF7, phenformin 10 μM alone, read-out: Tumor Growth Inhibition (%)) is 9%; in assay [3] (Homo sapiens, NCI-N87, phenformin 10 μM alone, read-out: Tumor Growth Inhibition (%)), 22%. In addition, the inhibition at 50 µM in assay [2] (Homo sapiens, MCF7, phenformin 50 μM alone, read-out: Tumor Growth Inhibition (%)) came to 12%; in assay [3] (Homo sapiens, NCI-N87, phenformin 50 μM alone, read-out: Tumor Growth Inhibition (%)), 24%. The inhibition at 200 µM came out at 18% in assay [2] (Homo sapiens, MCF7, phenformin 200 μM alone, read-out: Tumor Growth Inhibition (%)) and 24% in assay [3] (Homo sapiens, NCI-N87, phenformin 200 μM alone, read-out: Tumor Growth Inhibition (%)). The inhibition at 400 µM in assay [2] (Homo sapiens, MCF7, phenformin 400 μM alone, read-out: Tumor Growth Inhibition (%)) is 31%; in assay [3] (Homo sapiens, NCI-N87, phenformin 400 μM alone, read-out: Tumor Growth Inhibition (%)), 26%. For the same compound, the inhibition at 1000 µM came out at 58% in assay [2] (Homo sapiens, MCF7, phenformin 1 mM alone, read-out: Tumor Growth Inhibition (%)) and 39% in assay [3] (Homo sapiens, NCI-N87, phenformin 1 mM alone, read-out: Tumor Growth Inhibition (%)). Further, in assay [3] (Homo sapiens, NCI-N87, 48 h, phenformin HCl 700 μM), the inhibition at 700 µM is 52.5%. Besides, the “inhibitory effect on stomach cancer cells relative to breast cancer cells” value in assay [3] (NCI-N87 (700 μM) vs MCF7 (100 μM), 7-fold increased concentration) was “approximately 4 fold”.
